Experimental data taken from PubChem BioAssay (NCI).
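Briefly, cells in 96-well plates were exposed to five compound concentrations for 48 h, and endpoints were estimated by linear interpolation. GI50 marks 50% less growth. TGI: concentration producing complete growth inhibition.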

Key:
Assay in all cases: NCI-60 cell line screen, 48 h
NCI-H522 lung = system: NCI-H522 lung
SF-268 CNS = system: SF-268 CNS
M19-MEL melanoma = system: M19-MEL melanoma
HCT-15 colon = system: HCT-15 colon
SF-539 CNS = system: SF-539 CNS
SK-OV-3 ovarian = system: SK-OV-3 ovarian
MALME-3M melanoma = system: MALME-3M melanoma
OVCAR-4 ovarian = system: OVCAR-4 ovarian
M14 melanoma = system: M14 melanoma
HOP-18 NSCLC = system: HOP-18 NSCLC
HOP-92 NSCLC = system: HOP-92 NSCLC

Structure (SMILES) | TGI (NCI-H522 lung) [µM] | TGI (SF-268 CNS) [µM] | TGI (M19-MEL melanoma) [µM] | TGI (HCT-15 colon) [µM] | TGI (SF-539 CNS) [µM] | TGI (SK-OV-3 ovarian) [µM] | TGI (MALME-3M melanoma) [µM] | TGI (OVCAR-4 ovarian) [µM] | TGI (M14 melanoma) [µM] | TGI (HOP-18 NSCLC) [µM] | TGI (HOP-92 NSCLC) [µM] | GI50 (NCI-H522 lung) [µM] | GI50 (SF-268 CNS) [µM] | GI50 (HCT-15 colon) [µM] | GI50 (SF-539 CNS) [µM] | GI50 (OVCAR-4 ovarian) [µM] | GI50 (HOP-92 NSCLC) [µM]
O=C(c1ccco1)N(C(=S)N1CCN(c2ccccc2)CC1)c1ccccc1 | > 100 | > 100 | > 100 | > 100 | > 100 | > 100 | > 100 | > 100 | > 100 | > 100 | > 100 |  |  |  |  |  | 
CO[P@]1(=O)O[C@@H](c2ccccc2)[C@H](O)[C@]1(O)c1ccccc1 | > 100 | > 100 |  | > 100 | > 100 | > 100 | > 100 | > 100 | > 100 |  | > 100 |  |  |  |  |  | 
NC1CCC(c2cc3ccccc3s2)(N2CCCCC2)CC1 (stereo not drawn) | 4.15 | 15.8 |  | 3.76 | 4.59 | 22.6 | 7.79 | 15.2 | 2.88 |  | 5.15 |  |  |  |  |  | 
Cn1c(N/N=C/c2ccc(Cl)cc2)nc(-c2ccc(Cl)cc2)c(C#N)c1=O | 33.6 | > 100 |  | > 100 | 45 | > 100 | 91.7 | 61.7 | 42 |  | 57.7 |  |  |  |  |  | 
CN(C)CCOc1ccc(-c2c(Oc3ccc(Cl)cc3)c(=O)oc3ccccc23)cc1 | 20.9 | 29.5 |  | 22.8 | > 62.5 | 65.7 | 25.3 | 28.1 | 3.12 |  | > 39.4 |  |  |  |  |  | 
CC1=C(C#N)S(=O)(=O)c2c(oc(C)c2C)N1 | > 100 | > 100 |  | > 100 | > 100 | > 100 | > 100 | > 100 | > 100 |  | > 100 |  |  |  |  |  | 
COc1cc2[nH]c(-c3ccccc3)cc(=O)c2cc1OC | > 56.3 | > 100 |  | 97.9 | 60.5 | > 100 | > 100 | > 100 | > 76.2 |  | > 100 |  |  |  |  |  | 
Brc1ccc2c(c1)C1=C(CO2)Cc2ccccc2O1 | 39.8 | 41 |  | 38.4 | 36.3 | 46.7 | 38.2 | 33.6 | 35 |  | 31.5 |  |  |  |  |  | 
CC1(C)N=C(N)N=C(N)N1c1cccc(CSc2ccccc2)c1 | 27.3 | > 100 |  | > 100 | > 100 | > 100 | > 100 | > 100 | 11.2 |  | > 100 |  |  |  |  |  | 
Nc1cc(CO)cc(Nc2c3ccccc3nc3occc23)c1 | 39.9 | 87.3 |  | > 100 | 69.6 | > 100 | > 100 | 54.5 | 93.2 |  | > 100 |  |  |  |  |  | 
Cn1c2ccccc2n2c3nc4ccccc4nc3c(C#N)c12 | > 96.6 | > 100 | > 100 | > 100 | > 100 | > 100 | > 100 | > 100 | > 100 | > 100 | > 100 |  |  |  |  |  | 
CC(=O)Nc1ccc(Nc2nc(=O)[nH]c(=O)[nH]2)cc1 | > 100 | > 100 |  | > 100 | > 100 | > 100 | > 100 | > 100 | > 100 |  | > 100 |  |  |  |  |  | 
O=C(CSC1=NCCN1)c1ccccc1 | > 100 | > 100 |  | > 100 | > 100 | > 100 | > 100 | > 100 | > 100 |  | > 100 |  |  |  |  |  | 
NNC(=O)c1ccccc1NC(=O)/C(=C/c1ccccc1)NC(=O)c1ccccc1 | > 100 | > 100 |  | > 100 | > 100 | > 100 | > 100 | > 100 | > 100 |  | > 100 |  |  |  |  |  | 
O=C1NC(N2CCOCC2)=N/C1=C\c1ccccc1O | > 100 | > 100 |  | > 100 | > 100 | > 100 | > 100 | > 100 | > 100 |  | > 100 |  |  |  |  |  | 
COC(=O)/C=C1/OC(c2ccccc2)=C(Cl)C1=O | 33 | 48.1 |  | 25.4 | 47.1 | > 100 | 36 | 39 | 35.2 |  | 42.7 |  |  |  |  |  | 

Structure (SMILES) | TGI (NCI-H522 lung) [µM] | TGI (SF-268 CNS) [µM] | TGI (M19-MEL melanoma) [µM] | TGI (HCT-15 colon) [µM] | TGI (SF-539 CNS) [µM] | TGI (SK-OV-3 ovarian) [µM] | TGI (MALME-3M melanoma) [µM] | TGI (OVCAR-4 ovarian) [µM] | TGI (M14 melanoma) [µM] | TGI (HOP-18 NSCLC) [µM] | TGI (HOP-92 NSCLC) [µM] | GI50 (NCI-H522 lung) [µM] | GI50 (SF-268 CNS) [µM] | GI50 (HCT-15 colon) [µM] | GI50 (SF-539 CNS) [µM] | GI50 (OVCAR-4 ovarian) [µM] | GI50 (HOP-92 NSCLC) [µM]
Cc1nc2ccccc2n1CCc1nc2ccccc2s1 | > 100 | > 100 |  | > 100 | > 100 | > 100 | > 100 | > 100 | > 100 |  | > 100 |  |  |  |  |  | 
Cc1cc2ccccc2c[n+]1CC(=O)CC([O-])(C(F)(F)F)C(F)(F)F | > 100 | > 100 |  | > 100 | > 100 | > 100 | > 100 | > 100 | > 100 |  | > 100 |  |  |  |  |  | 
NS(=O)(=O)c1ccc(/C=C/c2cccc(O)c2)cc1 | 44.4 | > 100 |  | > 100 | > 100 | > 100 | > 100 | > 100 | > 100 |  | 65.9 | 12.2 | 65.6 | 22.8 | 36.7 | 27.8 | 17.4
COC(=O)C(Cc1ccccc1)NC(=O)CNC(=O)CSc1nnc(COc2ccc(Cl)cc2)n1-c1ccccc1 (stereo not drawn) | 5.45 | 33 |  | 36.4 | 34.3 | 28.6 | 34.5 | 21.7 | 31.7 |  | 35.3 |  |  |  |  |  | 
COC(=O)CC1C2CC3C(C2=O)C13 (stereo not drawn) | > 100 | > 100 |  | > 100 | > 100 | > 100 | > 100 | > 100 | > 100 |  | > 100 |  |  |  |  |  | 
COc1cc2c(cc1OCCCC(=O)Nc1cc(C(=O)Nc3cc(C(=O)NCCCN(C)C)n(C)n3)n(C)n1)N=CC1CCCN1C2=O (stereo not drawn) | 20.2 | 41.2 |  | 37.6 | 44.1 | > 100 | 31.5 | 26.5 | 33.8 |  | 33.2 |  |  |  |  |  | 
CCCCCC(C)C[C@H]1CO[C@H](c2ccc[nH]2)N[C@H]1C(=O)OC (stereo partly drawn) | > 100 | > 100 |  | > 100 | > 100 | > 100 | > 100 | > 100 | > 100 |  | > 100 |  |  |  |  |  | 
CC(=O)C(=C(I)I)c1ccccc1 | 31 | 52.6 |  | > 100 | 38.9 | > 100 | 25.6 | 31.3 | 31.6 |  | 64.5 |  |  |  |  |  | 
CN(C)c1ccc(C(c2ccc(N(C)C)cc2)c2ccc([N+](=O)[O-])cc2)cc1 | > 100 | > 100 |  | > 100 | > 100 | > 100 | > 100 | > 100 | > 100 |  | > 100 |  |  |  |  |  | 
CN(C)CCCOC(=O)C(O)(Cc1ccccc1)C1CC1 (stereo not drawn) | > 100 | > 100 |  | > 100 | > 100 | > 100 | > 100 | > 100 | > 100 |  | > 100 |  |  |  |  |  | 
CCN(CC)C(=O)CCCCCCCCC1CO1 (stereo not drawn) | > 100 | > 100 |  | > 100 | > 100 | > 100 | > 100 | > 100 | > 100 |  | > 100 |  |  |  |  |  | 
COc1ccc(-c2cn3c(n2)sc2cc(C)ccc23)cc1 | 51.4 | 78.7 |  | > 100 | 33.7 | 98.9 | > 100 | 83.8 | > 100 |  | 20.8 |  |  |  |  |  | 
O=C1CSC2(CCN(CCCN3c4ccccc4Sc4ccc(Cl)cc43)CC2)N1 | 23.6 | 26.6 |  | 20.8 | 26.4 | 21.5 | 24.4 | 23.1 | 20.6 |  | 20.3 |  |  |  |  |  | 
COC1CCC(OC2CC(C3(C)CCC4(CC(O)C(C)C(C(C)/C=C(\C)C(=O)C(C)CC(C)C(=O)O)O4)O3)OC3(OC(C4OC(O)(CO)C(C)CC4C)CC3C)C2C)OC1C (stereo not drawn) | 0.26 | 2.84 |  | 1.95 | 1.17 | 10.9 | 0.103 | 10.3 | 0.287 |  | 2.77 |  |  |  |  |  | 
C/C(=N/O)c1cccc(Nc2nc3ccccc3c3[nH]c4ccccc4c23)c1 | 4.4 | 6.24 |  | 10.6 | 23.9 | 22.1 | 13.8 | 6.96 | 6.3 |  | 6.95 |  |  |  |  |  | 
CC1=Nn2c(nc3sc4c(c3c2=O)CCCC4)SC1 | > 100 | > 100 |  | > 100 | > 100 | > 100 | > 100 | > 100 | > 100 |  | > 100 |  |  |  |  |  | 
